From patent US20250049740A1, “COMPOUND AND USE THEREOF IN PREPARATION OF MEDICAMENT FOR TREATING ALZHEIMER'S DISEASE” (priority 2024, published 2025)

Tests used:
Type in all cases: in vivo, mouse
3×Tg mice (AD mice) [1] = experiment: Morris water maze test, 3×Tg mice (AD mice) injected with formula I; conditions: 3×Tg mice injected with a composition containing formula I vs control group injected with normal saline
Text: (§1) 3×Tg mice (AD mice) in Example 2 were directly injected with a composition containing formula I (treatment group).

3×Tg mice (AD mice) [2] = experiment: Y maze test, 3×Tg mice (AD mice) injected with formula I; conditions: 3×Tg mice injected with a composition containing formula I vs control group injected with normal saline
Text: as §1

wild-type mice C57BL/6J [3] = experiment: Morris water maze test, wild-type mice given OLDA / OLDA plus formula I; conditions: for number of times of crossing the original platform location: platform removed
Experimental: (§2) 6-week-old female wild-type mice C57BL/6J were divided into a control group injected with normal saline (Ctrl), a diseased group (injected with OLDA), and a treatment group (Formula I-OLDA). The administration was carried out by intraperitoneal injection, and the diseased group (OLDA, 0.5 mg/kg to 1.5 mg/kg), the control group (injected with normal saline, the volume of which was equal to that in the diseased group), and the treatment group (0.5 mg/kg to 1.5 mg/kg of OLDA, and 0.5 mg/kg to 1.5 mg/kg of formula I, prepared into a mixed solution for administration) were all administered once a day by injection for 8 consecutive weeks. After administration, the learning and memory ability of the mice in each group was evaluated by Y maze and Morris water maze tests.

colon tissue [4] = experiment: Colon tissue histopathology, 3×Tg mice injected with formula I; conditions: 3×Tg mice injected with a composition containing formula I vs control group injected with normal saline
Text: as §1

[5] = system: IBA-1 and GFAP positive cells; experiment: IHC of brain neuroinflammation markers, wild-type mice
Experimental: as §2
(§3) According to the standard operating procedure of mouse brain anatomy, the mice in the control group, diseased group and treatment group in Example 3 were sacrificed, and their brain tissues and colon tissues were collected respectively and cryopreserved at −80° C.
(§4) The brain tissues of the mice in the diseased group and control group in Example 4 were examined by IHC technology for AD-related biochemical markers, and examined by IHC technology for the related markers of brain neuroinflammation.
The brain tissues of the mice in the treatment group in Example 4 were examined by IHC technology for the related markers of brain neuroinflammation and compared with the diseased group.

Aβ and p-Tau181 [6] = experiment: IHC of AD-related biochemical markers in brain tissue (hippocampus), wild-type mice
Experimental: as §2, §3, §4
The brain tissues of the mice in the treatment group in Example 4 were examined by IHC technology for AD-related biochemical markers and compared with the diseased group.

[7] = system: IBA-1 and GFAP positive cells; experiment: Brain neuroinflammation markers, 3×Tg mice injected with formula I; conditions: 3×Tg mice injected with a composition containing formula I vs control group injected with normal saline
Text: as §1

colon tissue [8] = experiment: HE staining of colon tissue (colonic epithelium histopathology), wild-type mice
Experimental: as §2, with “tests. According to the standard operating procedure of mouse brain anatomy, the mice in the control group, diseased group and treatment group in Example 3 were sacrificed, and their brain tissues and colon tissues were collected respectively and cryopreserved at −80° C. The colon tissues in the diseased group and control group in Example 4 were examined by HE staining technology for colonic epithelium histopathology. The colon tissues of the mice in the treatment group in Example 4 were examined by HE staining technology for colonic epithelium histopathology and compared with the diseased group.” for “tests.”

Aβ and p-Tau181 [9] = experiment: AD markers in hippocampus, 3×Tg mice injected with formula I; conditions: 3×Tg mice injected with a composition containing formula I vs control group injected with normal saline
Text: as §1

wild-type mice C57BL/6J [10] = experiment: Y maze test, wild-type mice given OLDA / OLDA plus formula I
Experimental: as §2

[11] = treatment group (OLDA and formula I) vs diseased group (OLDA)
[12] = treatment group (OLDA and formula I, each 0.5 mg/kg to 1.5 mg/kg, mixed solution, intraperitoneal once a day, 8 weeks) vs diseased group (OLDA)
[13] = OLDA 0.5 mg/kg to 1.5 mg/kg intraperitoneal once a day for 8 weeks, diseased group vs control group (normal saline)
[14] = OLDA diseased group vs control group

COc1cccc(NC(=O)/C=C/c2ccc(Cl)cc2)c1 [formula I]
time it took to find the platform (escape latency) (3×Tg mice (AD mice) [1]): significantly reduced
number of times of crossing the original platform location (3×Tg mice (AD mice) [1]; platform removed): significantly reduced
spontaneous alternation rate (3×Tg mice (AD mice) [2]): significantly increased
total number of arm entries (3×Tg mice (AD mice) [2]): significantly increased
number of times of crossing the original platform location (wild-type mice C57BL/6J [3]; [11]): significantly increased
time it took to find the platform (escape latency) (wild-type mice C57BL/6J [3]; [12]): significantly reduced
inflammatory cells in the colon tissue (colon tissue [4]): infiltrated into muscularis mucosae
number of crypts (colon tissue [4]): increased
number of GFAP positive cells [5, 11]: decreased
number of IBA-1 positive cells [5, 11]: decreased
area of Aβ in the hippocampus (Aβ and p-Tau181 [6]; [11]): significantly decreased
area of p-Tau181 in the hippocampus (Aβ and p-Tau181 [6]; [11]): significantly decreased
number of GFAP positive cells [7]: decreased
number of IBA-1 positive cells [7]: decreased
inflammatory cells in the colon tissue (colon tissue [8]; [11]): infiltrated into muscularis mucosae
number of crypts (colon tissue [8]; [11]): increased
area of Aβ in the hippocampus (Aβ and p-Tau181 [9]): decreased
area of p-Tau181 in the hippocampus (Aβ and p-Tau181 [9]): decreased
spontaneous alternation rate (wild-type mice C57BL/6J [10]; [12]): significantly increased
total number of arm entries (wild-type mice C57BL/6J [10]; [12]): significantly increased

CCCCCCCC/C=C\CCCCCCCC(=O)NCCc1ccc(O)c(O)c1 [OLDA, N-oleoyl-dopamine, reference compound]
time it took to find the platform (escape latency) (wild-type mice C57BL/6J [3]; [13]): significantly prolonged
number of times of crossing the original platform location (wild-type mice C57BL/6J [3]; OLDA 0.5 mg/kg to 1.5 mg/kg intraperitoneal once a day for 8 weeks, diseased group vs control group): significantly reduced
number of GFAP positive cells [5, 14]: increased
number of IBA-1 positive cells [5, 14]: increased
area of Aβ in the hippocampus (Aβ and p-Tau181 [6]; [14]): significantly increased
area of p-Tau181 in the hippocampus (Aβ and p-Tau181 [6]; [14]): significantly increased
inflammatory cells in the colon tissue (colon tissue [8]; [14]): infiltrated into muscularis mucosa
number of crypts (colon tissue [8]; [14]): decreased
spontaneous alternation rate (wild-type mice C57BL/6J [10]; [13]): significantly reduced
total number of arm entries (wild-type mice C57BL/6J [10]; [13]): significantly reduced
